For data set [1], the target named is T1, Monocarboxylate transporter 6 (MCT6) (Homo sapiens, UniProt O15375).
T1 sequence (O15375 1-505): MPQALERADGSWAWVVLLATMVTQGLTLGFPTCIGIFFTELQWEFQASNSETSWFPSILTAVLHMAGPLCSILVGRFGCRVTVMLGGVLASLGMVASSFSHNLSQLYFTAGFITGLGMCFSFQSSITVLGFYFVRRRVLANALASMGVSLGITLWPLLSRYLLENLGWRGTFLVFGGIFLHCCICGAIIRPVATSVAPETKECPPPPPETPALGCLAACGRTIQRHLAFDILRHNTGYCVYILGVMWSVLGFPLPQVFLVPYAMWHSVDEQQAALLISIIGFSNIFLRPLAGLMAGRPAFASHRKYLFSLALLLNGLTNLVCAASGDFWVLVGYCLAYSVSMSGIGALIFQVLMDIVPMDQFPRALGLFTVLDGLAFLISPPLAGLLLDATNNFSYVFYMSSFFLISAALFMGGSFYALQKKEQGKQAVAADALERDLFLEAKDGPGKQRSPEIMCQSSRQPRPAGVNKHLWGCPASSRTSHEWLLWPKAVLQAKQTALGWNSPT
The format is cell-based.

In data set [2] the target is T1, Monocarboxylate transporter 6 (MCT6). The experiment in a line: inhibition of [3H]bumetanide uptake in MCT6-expressing oocytes. The format is cell-based.
Substrate in data set [3]: CCCCNc1cc(C(=O)O)cc(S(N)(=O)=O)c1Oc1ccccc1
Briefly: radiolabeled uptake in MCT6-expressing versus water-injected oocytes. The format is cell-based, Homo sapiens.

For `O=c1c(O)c(-c2ccc(O)c(O)c2)oc2cc(O)cc(O)c12` [quercetin], the IC50 (usually the concentration needed to halve the response being measured) in data set [1] came out at 25.3 ± 3.36 µM. Same read-out and setting: the value for `O=c1c(O)c(-c2ccc(O)cc2O)oc2cc(O)cc(O)c12` [morin] was 33.1 ± 3.29 µM. As for `O=C(CCc1ccc(O)cc1)c1c(O)cc(O)cc1O` [phloretin], the Ki (commonly the equilibrium dissociation constant of an inhibitor or competing ligand from its target) in data set [2] is 22.8 ± 6.95 µM.

B1: Monocarboxylate transporter 6 (MCT6) (Homo sapiens) (protein)
chain: T1 sequence (O15375 1-505)
Take B1: the Michaelis-Menten constant (Km) (in general, the substrate concentration at which the rate is half of its maximum) in data set [3] turned out to be 60.5 ± 14.1 µM.
